Tests used:
hcGAS [1] = target: T1, hcGAS (Homo sapiens, UniProt Q8N884); experiment: hcGAS Kinase-Glo assay (ATP depletion); assay type: biochemical; settings: 40 nM hcGAS, 100 μM ATP, 100 μM GTP, 25 nM dsDNA, 3 h incubation
In short: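 Human cGAS activity measured indirectly as ATP depletion by Kinase-Glo luminescence, following the Lama et al. method with modified conditions. Output is IC50, binned into potency categories.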

hcGAS [2] = target: T1, hcGAS; experiment: hcGAS LCMS assay (direct measurement of cGAMP production); assay type: biochemical; settings: 0.5 nM hcGAS, 100 μM ATP, 100 μM GTP, 25 nM dsDNA, 4 h incubation
In short: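 Direct LC/MS readout of cGAMP formed: 4-h enzyme–substrate incubation with compound, stopped by acetonitrile/water quench carrying isotope-labelled cGAMP (0.15 mM) as standard. Potency reported as IC50 ranges.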

T1 sequence (Q8N884 whole entry): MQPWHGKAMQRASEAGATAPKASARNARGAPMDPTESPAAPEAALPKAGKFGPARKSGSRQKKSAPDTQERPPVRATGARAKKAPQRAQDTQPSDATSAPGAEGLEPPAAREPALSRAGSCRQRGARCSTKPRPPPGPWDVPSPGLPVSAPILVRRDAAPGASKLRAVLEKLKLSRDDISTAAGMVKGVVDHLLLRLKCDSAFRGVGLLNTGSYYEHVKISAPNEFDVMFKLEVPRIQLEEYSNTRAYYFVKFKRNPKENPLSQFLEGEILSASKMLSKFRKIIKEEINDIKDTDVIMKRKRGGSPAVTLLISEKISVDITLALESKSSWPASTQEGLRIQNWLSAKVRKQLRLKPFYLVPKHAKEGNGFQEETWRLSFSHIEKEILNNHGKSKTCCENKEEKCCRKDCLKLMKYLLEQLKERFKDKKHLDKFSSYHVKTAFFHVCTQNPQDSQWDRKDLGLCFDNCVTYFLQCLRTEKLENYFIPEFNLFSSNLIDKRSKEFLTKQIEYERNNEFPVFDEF

| SMILES | IC50 (hcGAS [1]) [nM] | IC50 (hcGAS [2]) [nM] |
| --- | --- | --- |
| COc1c(NCC(C)(C)OC)cc(C(=O)Nc2nnc(-n3nccc3C)s2)oc1=O [Compound 120, 3-methoxy-4-((2-methoxy-2-methylpropyl)amino)-N-(5-(5-methyl-1H-pyrazol-1-yl)-1,3,4-thiadiazol-2-yl)-2-oxo-2H-pyran-6-carboxamide] | 10 to 30 | 5 to 20 |
| COC[C@@H](C)Nc1cc(C(=O)Nc2nnc(-n3nccc3C)s2)oc(=O)c1OC [Compound 121, (R)-3-methoxy-4-((1-methoxypropan-2-yl)amino)-N-(5-(5-methyl-1H-pyrazol-1-yl)-1,3,4-thiadiazol-2-yl)-2-oxo-2H-pyran-6-carboxamide] | 10 to 30 | 5 to 20 |
| COc1c(NCCO)cc(C(=O)Nc2nnc(-n3nccc3C)s2)oc1=O [Compound 130, 4-((2-hydroxyethyl)amino)-3-methoxy-N-(5-(5-methyl-1H-pyrazol-1-yl)-1,3,4-thiadiazol-2-yl)-2-oxo-2H-pyran-6-carboxamide] | 30 to 100 | 20 to 60 |
| COCCNc1cc(C(=O)Nc2nnc(-c3cscc3Cl)s2)oc(=O)c1OC [Compound 136, N-(5-(4-chlorothiophen-3-yl)-1,3,4-thiadiazol-2-yl)-3-methoxy-4-((2-methoxyethyl)amino)-2-oxo-2H-pyran-6-carboxamide] | 10 to 30 | 5 to 20 |
| COc1c(NCCC#N)cc(C(=O)Nc2nnc(-n3nccc3C)s2)oc1=O [Compound 176, 4-((2-cyanoethyl)amino)-3-methoxy-N-(5-(5-methyl-1H-pyrazol-1-yl)-1,3,4-thiadiazol-2-yl)-2-oxo-2H-pyran-6-carboxamide] | 10 to 30 | 5 to 20 |
| COc1c(NC(C)C)cc(C(=O)Nc2nnc(-n3nccc3C)s2)oc1=O [Compound 179, 4-(isopropylamino)-5-methoxy-N-[5-(5-methylpyrazol-1-yl)-1,3,4-thiadiazol-2-yl]-6-oxopyran-2-carboxamide] | 30 to 100 | 5 to 20 |
| COc1c(NC23CC(C2)C3)cc(C(=O)Nc2nnc(-n3nccc3C)s2)oc1=O [Compound 182, 4-(bicyclo[1.1.1]pentan-1-ylamino)-3-methoxy-N-(5-(5-methyl-1H-pyrazol-1-yl)-1,3,4-thiadiazol-2-yl)-2-oxo-2H-pyran-6-carboxamide] | 10 to 30 | 5 to 20 |
| COc1c(N[C@@H]2CCOC2)cc(C(=O)Nc2nnc(-n3nccc3C)s2)oc1=O [Compound 184, (R)-3-methoxy-N-(5-(5-methyl-1H-pyrazol-1-yl)-1,3,4-thiadiazol-2-yl)-2-oxo-4-((tetrahydrofuran-3-yl)amino)-2H-pyran-6-carboxamide] | 30 to 100 | 20 to 60 |
| COc1c(NC[C@H](C)OC)cc(C(=O)Nc2nnc(-n3nccc3C)s2)oc1=O [Compound 187, (S)-3-methoxy-4-((2-methoxypropyl)amino)-N-(5-(5-methyl-1H-pyrazol-1-yl)-1,3,4-thiadiazol-2-yl)-2-oxo-2H-pyran-6-carboxamide] | 10 to 30 | 5 to 20 |
| COc1c(N2CCCC2)cc(C(=O)Nc2nnc(-n3nccc3C)s2)oc1=O [Compound 216, 3-methoxy-N-(5-(5-methyl-1H-pyrazol-1-yl)-1,3,4-thiadiazol-2-yl)-2-oxo-4-(pyrrolidin-1-yl)-2H-pyran-6-carboxamide] | 30 to 100 | 5 to 20 |
| COc1c(N[C@H]2CC[C@@H](O)CC2)cc(C(=O)Nc2nnc(-n3nccc3C)s2)oc1=O [Compound 220] | 10 to 30 | 5 to 20 |

Further lines, results first:

| IC50 (hcGAS [1]) [nM] | IC50 (hcGAS [2]) [nM] | SMILES |
| --- | --- | --- |
| 10 to 30 | 5 to 20 | COc1c(NC[C@@H](C)OC)cc(C(=O)Nc2nnc(-n3nccc3C)s2)oc1=O [Compound 119, (R)-3-methoxy-4-((2-methoxypropyl)amino)-N-(5-(5-methyl-1H-pyrazol-1-yl)-1,3,4-thiadiazol-2-yl)-2-oxo-2H-pyran-6-carboxamide] |
| 10 to 30 | < 5 | COCCNc1cc(C(=O)Nc2nnc(-c3c(Cl)ccn3C)s2)oc(=O)c1OC [Compound 127, N-(5-(3-chloro-1-methyl-1H-pyrrol-2-yl)-1,3,4-thiadiazol-2-yl)-3-methoxy-4-((2-methoxyethyl)amino)-2-oxo-2H-pyran-6-carboxamide] |
| < 10 | 5 to 20 | COc1c(NCCO)cc(C(=O)Nc2nnc(-c3c(Cl)ccn3C)s2)oc1=O [Compound 129, N-(5-(3-chloro-1-methyl-1H-pyrrol-2-yl)-1,3,4-thiadiazol-2-yl)-4-((2-hydroxyethyl)amino)-3-methoxy-2-oxo-2H-pyran-6-carboxamide] |
| 10 to 30 | 5 to 20 | COc1c(NC(C)C)cc(C(=O)Nc2nnc(-c3c(Cl)ccn3C)s2)oc1=O [Compound 131, N-(5-(3-chloro-1-methyl-1H-pyrrol-2-yl)-1,3,4-thiadiazol-2-yl)-4-(isopropylamino)-3-methoxy-2-oxo-2H-pyran-6-carboxamide] |
| 10 to 30 | 5 to 20 | COCCNc1cc(C(=O)Nc2nnc(-c3sccc3Cl)s2)oc(=O)c1OC [Compound 146, N-[5-(3-chlorothiophen-2-yl)-1,3,4-thiadiazol-2-yl]-5-methoxy-4-[(2-methoxyethyl)amino]-6-oxopyran-2-carboxamide] |
| 30 to 100 | 5 to 20 | COc1c(NCCS(C)(=O)=O)cc(C(=O)Nc2nnc(-n3nccc3C)s2)oc1=O [Compound 183] |
| 30 to 100 | 5 to 20 | COc1c(N[C@H]2CCOC2)cc(C(=O)Nc2nnc(-n3nccc3C)s2)oc1=O [Compound 185, (S)-3-methoxy-N-(5-(5-methyl-1H-pyrazol-1-yl)-1,3,4-thiadiazol-2-yl)-2-oxo-4-((tetrahydrofuran-3-yl)amino)-2H-pyran-6-carboxamide] |
